# Measurements from patent US20190105367A1, “ANTIMICROBIAL 4-OXOQUINOLIZINES” (Emergent Product Development Gaithersburg Inc., priority 2011, published 2019).
# Tests used:
# [1] = tested on: GN31 Acinetobacter baumannii antibiotic susceptible isolate; assay: Chequerboard synergy with polymyxin B, FICI (Example 6); type: cell-based
# Source text: (§1) A chequerboard technique was used to identify possible synergistic or antagonistic interactions between the 4-oxoquinolizines compounds, levofloxacin and polymyxin B. Levofloxacin was included as a control. […] Final dilutions were made in Mueller-Hinton broth, the specific test medium used for MIC determinations according to CLSI guidelines (CLSI. Methods for Dilution Antimicrobial Susceptibility Tests for Bacteria That Grow Aerobically; Approved Standard-Eighth Edition (2009). CLSI Document M07-A8. CLSI, Wayne, Pa. 19087-1898, USA.). The test medium used was a cation-adjusted Mueller-Hinton Broth II (Becton Dickinson UK Ltd., Oxford Science Park, Oxford, UK, OX4 4DQ).
# (§2) The compounds 2, 33 and 35, as well as levofloxacin were tested in combination with polymyxin B on the following isolates: GN31 Acinetobacter baumannii—antibiotic susceptible clinical isolate, GN52 Acinetobacter baumannii—levofloxacin resistant clinical isolate, GN56 Acinetobacter baumannii—levofloxacin resistant clinical isolate, GN48 Klebsiella pneumoniae—NCTC 13443—NDM-1-metallo-β-lactamase and GN10 Pseudomonas aeruginosa—ATCC 27853—antibiotic susceptible reference isolate. All isolates are from the collection maintained at Quotient Bioresearch Ltd., Cambridge, UK.
# (§3) The MIC values for the compounds and polymyxin B and levofloxacin were determined by broth microdilution following CLSI guidelines, and the MICs of agents in combination were determined as described by Pillai et. al (Pillai S K, Moellering R C Jr, Eliopoulis G M; Antimicrobial Combinations in Antibiotics in Laboratory Medicine 5th Edition (V. Lorian Ed) (2005) p 365-440). Initial MIC results were used to determine the microtiter plate patterns for the chequerboards. A suitable doubling dilution concentration range was selected such that the combination antibiotic range was at least two concentrations above and four concentrations below the MIC for each isolate. A fixed range of 0.008 to 8 mg/L was tested for polymyxin B except in the case of A. baumannii GN31 where a range of 0.004 to 4 mg/L was tested when in combination with the compounds 2, 33 and 35 as well as levofloxacin.
# (§4) From the raw data, fractional inhibitory concentration indices (FICI) were determined for the compounds of the invention and levofloxacin together with polymyxin B for each isolate as follows:
# (§5) FICX=concentration of the combination antibiotic in a particular row MIC of the combination drug alone
# (§6) FICY=MIC of polymyxin B in combination[…]MIC of the polymyxin B alone
# (§7) Additionally isobolograms were created to represent the same data visually. Here, the MIC of polymyxin B was plotted against every concentration of the combination antibiotic up to the MIC.
# [2] = tested on: GN48 Klebsiella pneumoniae NCTC 13443 NDM-1-β-lactamase producing isolate; assay: as above; type: cell-based
# Source text: as §1, §2, §3, §4, §5, §6, §7
# [3] = tested on: GN52 Acinetobacter baumannii levofloxacin resistant clinical isolate; assay: as above; type: cell-based
# Source text: as §1, §2, §3, §4, §5, §6, §7
# [4] = tested on: GN56 Acinetobacter baumannii levofloxacin resistant clinical isolate; assay: as above; type: cell-based
# Source text: as §1, §2, §3, §4, §5, §6, §7
# [5] = tested on: S. aureus ATCC 43300 (MRSA, FQ-S); assay: MIC, selected panel of bacterial strains (Example 5); type: cell-based, Staphylococcus aureus; settings: Staphylococcus aureus, read-out: MICs against Gram positive bacteria S. aureus ATCC 43300 (MRSA, FQ-S)
# [6] = in combination with polymyxin B
# [7] = polymyxin B with the named antibiotic
structure (smiles),measurement,setting,value
"Cc1c(-c2ccc3[nH]ncc3c2)ccn2c(=O)c(C(=O)O)cc(C3CC3)c12 [Compound 35, 8-(1H-indazol-5-yl)-1-cyclopropyl-9-methyl-4-oxo-quinolizine-3-carboxylic acid]",Combination drug MIC alone,[1],0.03 µg/mL
same,FICx,[1],0.13
same,FICy,[1],0.48
same,FICI,[1]; combination with polymyxin B,0.61
same,Synergy,[1]; combination with polymyxin B,Partial synergy (partial synergy/addition (FICI 0.51 to 0.75))
same,Combination drug concentration in combination,[1]; [6],0.004 mg/L
same,Polymyxin B MIC in combination,[1]; [7],0.12 µg/mL
same,FICx,[2],0.06
same,FICy,[2],0.50
same,FICI,[2]; combination with polymyxin B,0.56
same,Synergy,[2]; combination with polymyxin B,Partial synergy (partial synergy/addition (FICI 0.51 to 0.75))
same,Synergy,"[2]; combination with polymyxin B, listed as compound 35",partial synergy
same,Combination drug concentration in combination,[2]; [6],1 mg/L
same,Polymyxin B MIC in combination,[2]; [7],0.25 µg/mL
same,Combination drug MIC alone,[3],2 µg/mL
same,FICx,[3],0.25
same,FICy,[3],0.24
same,FICI,[3]; combination with polymyxin B,0.49
same,Synergy,[3]; combination with polymyxin B,Synergy (Synergy (FICI <0.5))
same,Combination drug concentration in combination,[3]; [6],0.5 mg/L
same,Polymyxin B MIC in combination,[3]; [7],0.12 µg/mL
same,Combination drug MIC alone,[4],8 µg/mL
same,FICx,[4],0.06
same,FICy,[4],0.50
same,FICI,[4]; combination with polymyxin B,0.56
same,Synergy,[4]; combination with polymyxin B,Partial synergy (partial synergy/addition (FICI 0.51 to 0.75))
same,Combination drug concentration in combination,[4]; [6],0.5 mg/L
same,Polymyxin B MIC in combination,[4]; [7],0.25 µg/mL
"Cc1c(-c2ccc(N)nc2)c(F)cn2c(=O)c(C(=O)[O-])cc(C3CC3)c12.[K+] [Compound 60K salt, potassium 8-(6-aminopyridin-3-yl)-1-cyclopropyl-7-fluoro-9-methyl-4-oxo-4H-quinolizine-3-carboxylate]",MIC,[5],< 0.004 µg/mL
"Cc1c(C2=CCNCC2)c(F)cn2c(=O)c(C(=O)[O-])cc(C3CC3)c12.[K+] [Compound 62K salt, potassium 8-(1,2,3,6-tetrahydropyridin-4-yl)-1-cyclopropyl-7-fluoro-9-methyl-4-oxo-4H-quinolizine-3-carboxylate]",MIC,[5],0.125 µg/mL
